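A five-concentration, 48-hour dose response in 96-well plates underlies each endpoint, interpolated linearly between surrounding concentrations. GI50 marks 50% less growth.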 Activity calls are given as the source filed them. No stated cut-off is given here; in the data, active = GI50 up to about 1.1 µM and inactive = higher.
Key:
Experiment in all cases: inhibition of tumour cell growth, NCI panel, 48 h
786-0 = tested on: 786-0
A498 = tested on: A498
HCT-116 = tested on: HCT-116
HL-60 = tested on: HL-60
HT-29 = tested on: HT-29
IGROV-1 = tested on: IGROV-1
LOX IMVI = tested on: LOX IMVI
M14 = tested on: M14
MDA-N = tested on: MDA-N
NCI-H226 = tested on: NCI-H226
NCI-H522 = tested on: NCI-H522
NCI/ADR-RES = tested on: NCI/ADR-RES
OVCAR-8 = tested on: OVCAR-8
PC-3 = tested on: PC-3
SF-268 = tested on: SF-268
SK-MEL-5 = tested on: SK-MEL-5
SN12C = tested on: SN12C
TK-10 = tested on: TK-10
UO-31 = tested on: UO-31

Structure (SMILES)	GI50 (786-0)	GI50 (A498)	GI50 (HCT-116)	GI50 (HL-60)	GI50 (HT-29)	GI50 (IGROV-1)	GI50 (LOX IMVI)	GI50 (M14)	GI50 (MDA-N)	GI50 (NCI-H226)	GI50 (NCI-H522)	GI50 (NCI/ADR-RES)	GI50 (OVCAR-8)	GI50 (PC-3)	GI50 (SF-268)	GI50 (SK-MEL-5)	GI50 (SN12C)	GI50 (TK-10)	GI50 (UO-31)
CCC(C)(C)c1ccc(Oc2cccc(C(=O)O)c2)cc1	89.3 µM (inactive)	53.8 µM (inactive)	41.5 µM (inactive)	40.1 µM (inactive)	44.4 µM (inactive)	> 100 µM (inactive)	50.4 µM (inactive)	52.8 µM (inactive)	47.6 µM (inactive)	39.9 µM (inactive)	28.2 µM (inactive)	50.1 µM (inactive)	69.7 µM (inactive)	55 µM (inactive)	46.8 µM (inactive)	43.1 µM (inactive)	56.4 µM (inactive)	> 100 µM (inactive)	48.1 µM (inactive)
CN(/N=C/c1ccccn1)C1=NCCCCN1	> 100 µM (inactive)	> 100 µM (inactive)	> 100 µM (inactive)	> 100 µM (inactive)	> 100 µM (inactive)	> 100 µM (inactive)	> 100 µM (inactive)	> 100 µM (inactive)	> 100 µM (inactive)	> 100 µM (inactive)	> 100 µM (inactive)	> 100 µM (inactive)	> 100 µM (inactive)	> 100 µM (inactive)	> 100 µM (inactive)	> 100 µM (inactive)	–	> 100 µM (inactive)	> 100 µM (inactive)
CC(C)=CCNc1ncnc2[nH]cnc12	> 100 µM (inactive)	> 100 µM (inactive)	> 100 µM (inactive)	> 100 µM (inactive)	> 100 µM (inactive)	> 100 µM (inactive)	> 100 µM (inactive)	> 100 µM (inactive)	> 100 µM (inactive)	90.2 µM (inactive)	> 100 µM (inactive)	> 100 µM (inactive)	> 100 µM (inactive)	> 100 µM (inactive)	> 100 µM (inactive)	87.7 µM (inactive)	> 100 µM (inactive)	> 100 µM (inactive)	> 100 µM (inactive)
CN(C)c1ccc(/C=N/Nc2nc3ccccc3c(=O)n2-c2ccccc2)cc1	23.7 µM (inactive)	63.2 µM (inactive)	51.5 µM (inactive)	> 100 µM (inactive)	> 100 µM (inactive)	> 100 µM (inactive)	> 100 µM (inactive)	78 µM (inactive)	74.3 µM (inactive)	> 100 µM (inactive)	44.5 µM (inactive)	63.1 µM (inactive)	46.9 µM (inactive)	55.1 µM (inactive)	43.5 µM (inactive)	56.9 µM (inactive)	> 100 µM (inactive)	> 100 µM (inactive)	> 100 µM (inactive)
CC(=NNC(=S)Nc1ccc(C)cc1)c1cccc(C(C)=NNC(=S)Nc2ccc(C)cc2)n1	5.9 µM (inactive)	20.9 µM (inactive)	7.33 µM (inactive)	3.97 µM (inactive)	11.9 µM (inactive)	12.1 µM (inactive)	9.91 µM (inactive)	8.89 µM (inactive)	19.9 µM (inactive)	13.7 µM (inactive)	22.3 µM (inactive)	5 µM (inactive)	6.44 µM (inactive)	17.7 µM (inactive)	> 100 µM (inactive)	6.44 µM (inactive)	21.5 µM (inactive)	60.1 µM (inactive)	6.68 µM (inactive)
N=c1oc2ccc(Cl)cc2cc1C(=O)Nc1ccccc1	10.7 µM (inactive)	> 100 µM (inactive)	> 59 µM (inactive)	> 100 µM (inactive)	> 100 µM (inactive)	26.1 µM (inactive)	> 100 µM (inactive)	> 100 µM (inactive)	> 100 µM (inactive)	> 100 µM (inactive)	5.11 µM (inactive)	17.3 µM (inactive)	56.5 µM (inactive)	> 100 µM (inactive)	> 76 µM (inactive)	> 100 µM (inactive)	> 100 µM (inactive)	> 75.2 µM (inactive)	> 47 µM (inactive)
COc1ccc(P2(=S)Oc3ccc(C(c4ccccc4)(c4ccccc4)c4ccccc4)cc3O2)cc1 (stereo not given)	18 µM (inactive)	17.7 µM (inactive)	17.8 µM (inactive)	15.5 µM (inactive)	18.8 µM (inactive)	17.5 µM (inactive)	14.5 µM (inactive)	14.1 µM (inactive)	18.5 µM (inactive)	16.6 µM (inactive)	16.7 µM (inactive)	20.6 µM (inactive)	16 µM (inactive)	13.9 µM (inactive)	17.2 µM (inactive)	21.6 µM (inactive)	17.9 µM (inactive)	19.1 µM (inactive)	17 µM (inactive)
O=[N+]([O-])c1cc2ccc1OCc1cccc(n1)COc1ccc(cc1[N+](=O)[O-])/C=N\CCCCCCCC/N=C\2	> 100 µM (inactive)	> 100 µM (inactive)	> 100 µM (inactive)	–	> 100 µM (inactive)	> 100 µM (inactive)	> 100 µM (inactive)	> 100 µM (inactive)	> 100 µM (inactive)	> 100 µM (inactive)	> 100 µM (inactive)	> 100 µM (inactive)	> 100 µM (inactive)	> 100 µM (inactive)	> 100 µM (inactive)	> 100 µM (inactive)	> 100 µM (inactive)	> 100 µM (inactive)	> 100 µM (inactive)
O=C(c1ccc(Cl)c(Cl)c1)N(C(=S)OC12CC3CC(CC(C3)C1)C2)c1ccccc1	30.3 µM (inactive)	37.1 µM (inactive)	24.8 µM (inactive)	15.8 µM (inactive)	29.6 µM (inactive)	–	–	20.8 µM (inactive)	32.7 µM (inactive)	31.2 µM (inactive)	13.2 µM (inactive)	30.1 µM (inactive)	41.5 µM (inactive)	39.9 µM (inactive)	40.4 µM (inactive)	19.5 µM (inactive)	26.9 µM (inactive)	66.8 µM (inactive)	21.1 µM (inactive)
COc1cccc(C23CCCC(C2)NCC3Br)c1OC (stereo not given)	81.3 µM (inactive)	15.4 µM (inactive)	30.8 µM (inactive)	–	37.3 µM (inactive)	75.7 µM (inactive)	37.5 µM (inactive)	34.4 µM (inactive)	48.4 µM (inactive)	0.154 µM (active)	10.2 µM (inactive)	31.1 µM (inactive)	11.2 µM (inactive)	30.5 µM (inactive)	23 µM (inactive)	2.55 µM (inactive)	31 µM (inactive)	36.9 µM (inactive)	47.4 µM (inactive)
CC1=C(C#N)C(C#N)(C#N)C(NN(C)C)C1 (stereo not given)	8.99 µM (inactive)	20.9 µM (inactive)	11 µM (inactive)	3.59 µM (inactive)	15.4 µM (inactive)	17.8 µM (inactive)	12.6 µM (inactive)	29 µM (inactive)	10.1 µM (inactive)	–	4.07 µM (inactive)	23.8 µM (inactive)	26.3 µM (inactive)	20.4 µM (inactive)	21.7 µM (inactive)	4.49 µM (inactive)	14.1 µM (inactive)	17 µM (inactive)	13.5 µM (inactive)
O=C1c2cc(Cl)ccc2N=C(NC2CCCC2)C2CSCN12 (stereo not given)	> 100 µM (inactive)	68.9 µM (inactive)	> 100 µM (inactive)	–	28.9 µM (inactive)	> 100 µM (inactive)	> 100 µM (inactive)	91.2 µM (inactive)	> 100 µM (inactive)	60 µM (inactive)	63.8 µM (inactive)	> 100 µM (inactive)	> 100 µM (inactive)	55.8 µM (inactive)	66.5 µM (inactive)	46.1 µM (inactive)	> 100 µM (inactive)	> 100 µM (inactive)	46.3 µM (inactive)
CSc1ncnc2c1ncn2C1CC(Oc2ccc(C)cc2)C(COc2ccc(C)cc2)O1 (stereo not given)	> 100 µM (inactive)	> 100 µM (inactive)	> 100 µM (inactive)	> 100 µM (inactive)	> 100 µM (inactive)	> 100 µM (inactive)	> 100 µM (inactive)	> 100 µM (inactive)	> 100 µM (inactive)	> 100 µM (inactive)	> 100 µM (inactive)	> 100 µM (inactive)	> 100 µM (inactive)	> 100 µM (inactive)	> 100 µM (inactive)	52.2 µM (inactive)	> 100 µM (inactive)	> 100 µM (inactive)	–
CCOP(=O)(/C=C/n1cc(C)c(=O)[nH]c1=O)OCC	> 100 µM (inactive)	> 100 µM (inactive)	> 100 µM (inactive)	> 100 µM (inactive)	> 100 µM (inactive)	> 100 µM (inactive)	> 100 µM (inactive)	> 100 µM (inactive)	> 100 µM (inactive)	> 100 µM (inactive)	> 100 µM (inactive)	> 100 µM (inactive)	> 100 µM (inactive)	> 100 µM (inactive)	> 100 µM (inactive)	> 100 µM (inactive)	> 100 µM (inactive)	> 100 µM (inactive)	–
COCC12CCC(OC)C34C5CC6(O)C(OC)C=C(C5C6OC(=O)c5ccccc5)C(C(OC)C13)C4N(C)C2 (stereo not given)	> 100 µM (inactive)	> 100 µM (inactive)	> 100 µM (inactive)	> 100 µM (inactive)	> 100 µM (inactive)	> 100 µM (inactive)	> 100 µM (inactive)	> 100 µM (inactive)	> 100 µM (inactive)	–	> 100 µM (inactive)	> 100 µM (inactive)	> 100 µM (inactive)	> 100 µM (inactive)	> 100 µM (inactive)	> 100 µM (inactive)	> 100 µM (inactive)	> 100 µM (inactive)	> 100 µM (inactive)
